Data on 2 molecules can be found in US20190125714A1, “CALPAIN INHIBITORS IN THE PREVENTION AND/OR TREATMENT OF VENTRICULAR REMODELLING” (FUNDAClÓ HOSPITAL UNIVERSITARI VALL D'HEBRON - INSTITUT DE …, priority 2016, published 2019).

Molecules are shown by their SMILES. Where two headings read alike, the source gives them in different places.

For data set [1] the following is noted: administered at the start (onset) of reperfusion; cited from earlier work.
The conditions of data set [2]: intravenously before initiating ischemia and during a reperfusion of 6 hours; cited from earlier work.
Data set [3] concerns calpain. Briefly: Proteolysis of α-fodrin after oral gavage, 60 minutes of reperfusion. Type of data set: in vivo, rat. To be noted: 120 mg/kg orally (gavage); after 60 minutes of reperfusion.
The test system of data set [4] is Sprague-Dawley rats. Put plainly: Inflammatory cell infiltration (CD68 immunohistochemistry) in hearts reperfused for 3 days. The data set is classed as in vivo, rat. To be noted: 3 days of reperfusion. Here is the method:
Sprague-Dawley rats (250-300 g) were premedicated with atropine (0.05 mg/kg ip), anaesthetized with ketamine (75 mg/kg ip) and xylazine (10 mg/kg ip), and mechanically ventilated (Inspira ASV, Harvard Apparatus). Anaesthesia was maintained with 1-2% isoflurane and body temperature controlled with a heating pad to 36-37° C. The heart was exposed through the fourth intercostal space and the left anterior descending coronary artery (LAD) ligated using 6/0 silk suture (Ethicon Endo-surgery, OH, USA), 1 mm distal to left atrial appendage. After occlusion for 30 min, the suture was loosened to start reperfusion and buprenorphine (0.05 mg/kg per 6 h, subcutaneously) was given for 48 h. Mice with lack of ST-elevation during ischemia or lack of ST-recovery at reperfusion were excluded from further evaluation.
Macrophage infiltration in the non-infarcted myocardium was analyzed by immunohistochemistry in hearts reperfused for 3 days (n=4 per group).
Myocardial sections were exposed to H2O2/methanol, levamisol (DakoCytomation) and avidin/biotin blocking (Vector Laboratories) to neutralize endogenous peroxidase, phosphatase and biotin, respectively. Sections were probed with CD68 (AbD Serotec) for monocytes/macrophages, incubated with a biotinylated secondary antibody (1:200, ABC Peroxidase standard stainig kit, Thermo Scientific) in 2% normal blocking serum and visualized using 3, 3′-diaminobenzidine (DAB, Sigma). Six random photomicrographs from the infarct area and six from the non-infarcted area for each heart (n=6 per group) were taken at 200× magnification.

For data set [5], the system named is Sprague-Dawley rats. To be noted: for Attenuation of scar area (LV area stained with picrosirius red): 21 days of reperfusion.
Data set [6] deals with T1, matrix metalloproteinase-2 (MMP-2) (Rattus norvegicus, UniProt P33436).
T1 construct: myocardial preparations obtained from rats reperfused for 21 days (control group); from tissue; host or cells: rat myocardium (extracts after 21 days of reperfusion)
T1 sequence (P33436 110-662): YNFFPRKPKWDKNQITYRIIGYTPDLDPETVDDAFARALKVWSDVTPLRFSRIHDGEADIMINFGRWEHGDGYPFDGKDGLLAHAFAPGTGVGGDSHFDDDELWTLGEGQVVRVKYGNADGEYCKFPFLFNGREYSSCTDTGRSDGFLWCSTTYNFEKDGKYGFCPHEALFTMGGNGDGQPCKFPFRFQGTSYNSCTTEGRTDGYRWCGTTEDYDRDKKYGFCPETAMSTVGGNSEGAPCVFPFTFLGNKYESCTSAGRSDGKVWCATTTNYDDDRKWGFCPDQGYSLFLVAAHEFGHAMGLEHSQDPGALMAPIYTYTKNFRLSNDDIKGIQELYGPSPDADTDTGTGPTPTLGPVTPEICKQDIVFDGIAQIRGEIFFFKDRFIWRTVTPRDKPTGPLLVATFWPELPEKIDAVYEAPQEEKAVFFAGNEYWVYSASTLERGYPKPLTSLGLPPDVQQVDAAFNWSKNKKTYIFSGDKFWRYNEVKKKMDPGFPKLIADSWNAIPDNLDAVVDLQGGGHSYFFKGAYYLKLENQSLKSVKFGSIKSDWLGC
Put plainly: MMP-2 gelatinolytic activity by gelatin zymography of myocardial extracts. Type of data set: biochemical. The note with it: 5, 10 and 50 μM, incubated overnight at 37° C. As for the experimental part: Activity of MMP-2 was evaluated by gelatin zymography. Briefly, myocardial preparations obtained from rats reperfused for 21 days (control group) were run on a 10% polyacrylamide gel copolymerized with 1.5 mg/ml gelatin. After washing with 2.5% Triton X-100, gels were cut into strips and incubated separately, overnight, in zymography buffer with SNJ-1945 at the concentrations of 5, 10 and 50 μM, DMSO as a vehicle control or the selective MMP inhibitor ONO-4817 (N-[(1 S,3S)-1-[(Ethoxymethoxy)methyl]-4-(hydroxyamino)-3-methyl-4-oxobutyl]-4-phenoxybenzamide) (50 μM, Tocris). It was further examined MMP-2 activity (as % of 0 μM) in samples prepared from animals receiving SNJ-1945 by oral gavage and reperfused for 21 days (Chronic group). Gels were stained in 0.25% Coomassie Brilliant blue G, 40% methanol, and gelatinolytic activities quantitated after destaining.

For data set [7] the following is noted: added to the cardioplegic solution and during 60 min of reperfusion; cited from earlier work.
Data set [8] deals with calpain. Put plainly: Isolated rat hearts subjected to ischemia/reperfusion, calpain-specific α-fodrin breakdown products. The note with it: perfusion of isolated rat hearts, data not shown.
The subject of data set [9] is Sprague-Dawley rats. Briefly: Myocardial hypertrophy and fibrosis induced by isoproterenol. Type of data set: in vivo, rat. To be noted: 7 days. Here is the method:
Chronic administration of isoproterenol is the most common small animal model in the study of myocardial remodeling. In order to study the effect of calpain inhibition in AVR of a different cause than myocardial infarction, myocardial hypertrophy and fibrosis induced by isoproterenol.
The calpain inhibitor SNJ-1945 was co-administered orally once a day to male Sprague-Dawley rats that received 5 mg/Kg/day isoproterenol (ISO) […] for 1 week. Assayed groups were as follows:
Isoproterenol group (ISO): administration of isoproterenol as a single daily subcutaneous injection for 7 consecutive days.
SNJ-1945 treated group (SNJ+ISO): co-administration of SNJ-1945 (orally) and isoproterenol (subcutaneous) for 7 consecutive days.
Hearts were obtained and compared with vehicle-treated and ISO treated rats not receiving the calpain inhibitor.
Echocardiography was performed using a Vivid portable ultrasound system with a i12L-RS 12 MHz transducer (GE Healthcare) as described earlier (Poncelas, Inserte et al. 2015, “Obesity induced by high fat diet attenuates postinfarct myocardial remodeling and dysfunction in adult B6D2F1 mice”, Journal of Molecular and Cellular Cardiology-2015, vol. no. 84, pp.: 154-161).
For the PCR, total RNA was extracted from ischemic and non-ischemic area of heart samples of the three assayed groups using TRIsure™ reagent (BIOLINE, UK) following the manufacturer's protocol. Quantitative RT-PCR was performed using Taqman universal PCR master mix (Applied Biosystems, USA). The amplification program consisted of 50° C. for 2 minutes, 95° C. for 10 minutes and 40 cycles of 95° C. for 15 sec and 60° C. for 1 minutes and was performed in a 7900HT Fast Real-Time PCR System (Applied Biosystems, USA). Primers used for ANP, BNP, collagen I, Myh6, Myh7, and […] were purchased from Thermofisher and were those in the following Gene Expression Assays (Rn00561661_m1, Rn04219558_g1, Rn01463848_m1, Rn00691721_g1, Rn01488777_g1, and Rn00572010_m1, respectively, reference to assays retrievable from Thermofisher catalogue at Mar. 1, 2017; https://www.thermofisher.com/order/genome-databaseldetails/gene-expression/).

Setting [10] is: SNJ-1945 orally once a day with isoproterenol 5 mg/Kg/day.
The mark [11] stands for this setting: oral co-administration with ISO.

Regarding `CCN(CC)Cc1ccc(/C=C/c2ccccc2C(=O)NC(Cc2ccccc2)C(=O)C(N)=O)cc1` (centres unmarked) [A-705253], the Cardioprotective effect result in data set [1] is “cardioprotective effect”. Moreover, in [2], the “Hemodynamic and contractile function” value was “improved”; the Infarct size entry is “reduced”.
Turning to `COCCOCCOC(=O)N[C@@H](CC(C)C)C(=O)N[C@@H](Cc1ccccc1)C(=O)C(=O)NC1CC1` [SNJ-1945, ((1S)-1-((((1S)-1-benzyl-2,3-dioxo-3-(cyclopropylamino)-propyl)amino)carbonyl)-3-methylbutyl)carbamic acid 5-methoxy-3-oxapentyl ester], the “Proteolisis of α-fodrin” value with calpain [3] is “significantly reduced”. The “Infiltration of monocytes/macrophages: acute and chronic treatments combined” value with Sprague-Dawley rats [4] (Ac+Chr group, P<0.001) is listed as “no significant additive effect”. For the same molecule, the “Infiltration of monocytes/macrophages (CD68+) in the ischemic area” value in the data set on Sprague-Dawley rats [4] (Acute group, P=0.002) is reported as “attenuate”; in the data set with Sprague-Dawley rats [4] (Chronic group, P=0.028), “attenuate”. Moreover, the “Infiltration of monocytes/macrophages (CD68+) in the non-ischemic area” value in the data set on Sprague-Dawley rats [4] (Acute group, P=0.046) is listed as “attenuate”; with Sprague-Dawley rats [4] (Chronic group, P=0.001) it was “attenuate”. Besides, the “LV dilation and dysfunction (echocardiography: LVEDD, LVESD, EF)” value is reported as “significantly attenuated” with Sprague-Dawley rats [5] (Ac+Chr group: acute ip plus oral 14 days, measured at 1 week of reperfusion vs control); “significantly attenuated” in the data set with Sprague-Dawley rats [5] (Acute group: 120 mg/kg intraperitoneally 5 min before reperfusion, measured at 1 week of reperfusion vs control); “significantly attenuated” in the data set on Sprague-Dawley rats [5] (Chronic group: 120 mg/kg orally over 14 days starting after 24 h of reperfusion, at 21 days of reperfusion vs control). Besides, the “Attenuation of scar area (LV area stained with picrosirius red)” value with Sprague-Dawley rats [5] (Ac+Chr group, P=0.003) is recorded as 33.7%; in the data set on Sprague-Dawley rats [5] (Acute group, 120 mg/kg ip at reperfusion, P=0.002), 29.1%; in the data set on Sprague-Dawley rats [5] (Chronic group, 120 mg/kg oral 14 days from 24 h of reperfusion, P=0.036) it was 22.7%. The “Levels of α-SMA (marker of fibroblast activation, western-blot)” value in the data set on Sprague-Dawley rats [5] (Ac+Chr group, P=0.009) was “reduced”; in the data set on Sprague-Dawley rats [5] (Chronic group, P=0.012), “reduced”. Moreover, the “Interstitial fibrosis, acute and chronic phase combined” value in the data set with Sprague-Dawley rats [5] (Ac+Chr group, P=0.016) was “No further reduction”. The “β-MHC protein levels (western-blot, relative to GAPDH)” value is recorded as “attenuated” in the data set with Sprague-Dawley rats [5] (Ac+Chr group, P=0.019); “attenuated only in groups treated chronically” with Sprague-Dawley rats [5] (Acute group); “attenuated” with Sprague-Dawley rats [5] (Chronic group, P=0.036). Also, the “Cardiomyocyte hypertrophy (cross-sectional area, non-ischemic myocardium)” value is “significantly reduced” in the data set with Sprague-Dawley rats [5] (Ac+Chr group, P=0.021); “not acute” with Sprague-Dawley rats [5] (Acute group); “significantly reduced” with Sprague-Dawley rats [5] (Chronic group, P=0.041). In addition, the “LV dilatation, ejection fraction and scar area: combination vs individual treatments” value with Sprague-Dawley rats [5] (Ac+Chr vs acute or chronic alone) was “did not result in a statistically significant improvement”. For the same molecule, the “Hypertrophy markers: additive effect when both treatments were combined” value with Sprague-Dawley rats [5] (Ac+Chr vs single treatments) was “No significant additive effect”. Moreover, the “Interstitial collagen deposition in the non-infarcted area” value is on record as “not acute treatment” in the data set with Sprague-Dawley rats [5] (Acute group, P=0.109) and “reduced” in the data set with Sprague-Dawley rats [5] (Chronic group, P=0.029). In the data set with Sprague-Dawley rats [5] (at the end of the experiment (21 days)), the “Echocardiographic parameters, acute vs chronic treatment” value is recorded as “No significant differences”. For the same molecule, the “Survival rate between groups” value in the data set with Sprague-Dawley rats [5] (control, acute, chronic, Ac+Chr, overall mortality rate 12.5%) is “no differences”. Besides, in [6], the “MMP-2 activity (gelatinolytic)” value is “does not inhibit”. In addition, the “Left ventricular dysfunction after cardioplegic arrest” value in [7] is reported as “prevents left ventricular dysfunction”. The “Calpain-specific α-fodrin breakdown products (calpain inhibition)” value in the data set on calpain [8] is reported as “dose-dependent reduction”. Besides, in the data set on Sprague-Dawley rats [9] (setting [10]), the “Increase in heart weight induced by isoproterenol” value is “reduces the increase”. The “Increase in interventricular wall (IVSWT) thickness induced by isoproterenol, echocardiography” value in the data set on Sprague-Dawley rats [9] (setting [10]) is on record as “reduces the increase”. Further, the “Increase in posterior wall (PWT) thickness induced by isoproterenol, echocardiography” value in the data set on Sprague-Dawley rats [9] (setting [10]) is given as “reduces the increase”. Also, the “ANP mRNA levels (PCR)” value in the data set on Sprague-Dawley rats [9] (setting [11]) was “reduced”. For the same molecule, the “BNP mRNA levels (PCR)” value in the data set on Sprague-Dawley rats [9] (setting [11]) is listed as “reduced”. In addition, in the data set on Sprague-Dawley rats [9] (setting [11]), the Calpain activation result is listed as “attenuated”. Moreover, the Cardiomyocyte crossectional area result in the data set with Sprague-Dawley rats [9] (setting [11]) is given as “reduced”. For the same molecule, in the data set on Sprague-Dawley rats [9] (setting [11]), the “Expression of TGFβ induced by ISO (PCR)” value was “significantly reduced”. Also, in the data set with Sprague-Dawley rats [9] (setting [11]), the “Expression of collagen I induced by ISO (PCR)” value is “significantly reduced”. Moreover, the “Intraventricular collagen deposition induced by ISO” value with Sprague-Dawley rats [9] (setting [11]) is on record as “significantly reduced”. In addition, the “β-MHC/α-MHC ratio (PCR)” value in the data set with Sprague-Dawley rats [9] (setting [11]) is “reduced”.
